From patent US20220110847A1, “USE OF COOLING MATERIALS FOR THE REDUCTION OR INHIBITION OF SALTINESS IN ORALLY ADMINISTERED, IMBIBED OR INGESTED CONSUMER PRODUCTS” (TAKASAGO INTERNATIONAL CORPORATION, priority 2019, published 2022)

Assay: Saltiness rating of toothpaste samples by an expert panel
Format: in vivo
Details: for perceived salty taste compared with both the Control and the other tested cooling materials: cooling material added to commercial toothpaste with approximately 50% sodium bicarbonate, expert panel; for Average RATING (saltiness): saltiness scale of 1 (less salty) to 7 (most salty), 7 evaluators, cooling material at 0.2 % (table) in commercial toothpaste with approximately 50% by weight sodium bicarbonate, Control 6.43
Protocol: A sample of a commercially available toothpaste containing approximately 50% by weight of sodium bicarbonate was used as a Control. […] All of the toothpaste samples, including the Control, were evaluated by an expert panel comprised of 4 Flavorist(s), 2 Flavor Lab Managers, and 1 Flavor Lab Technician. Each sample was assigned a number by each evaluator to indicate saltiness, using a saltiness scale of 1(less salty) to 7(most salty).

SMILES | perceived salty taste compared with both the Control and the other tested cooling materials | Average RATING (saltiness)
CC(=O)C1CCC(C)CC1O (centres unmarked) [1-(2-hydroxy-4-methylcyclohexyl)-ethanone] | less salty taste | 2.43
C=C(C)[C@@H]1CC[C@@H](C)C[C@H]1O [1-isopulegol, reference compound] | – | 6.29
CNC(=O)C(C)(C(C)C)C(C)C [2-isopropyl-N,2,3-trimethylbutyramide, reference compound] | – | 6
CC(C)[C@@H]1CC[C@@H](C)C[C@H]1OCC(O)CO (stereo partly drawn) [3-L-menthoxypropan-1,2-diol] | less salty taste | 3.00
CC(O)CC(=O)O[C@@H]1C[C@H](C)CC[C@H]1C(C)C (stereo partly drawn) [L-menthyl-3-hydroxybutanoate] | less salty taste | 3.86
CC1CCC(C(C)C)C(OC(=O)C(C)O)C1 (centres unmarked) [Menthyl Lactate, reference compound] | – | 6.43
COc1ccc(NC(=O)C2CC(C)CCC2C(C)C)cc1 (centres unmarked) [N-(4-methoxyphenyl)-p-menthanecarboxamide] | less salty taste | 5.57
CCOC(=O)CNC(=O)C1CC(C)CCC1C(C)C (centres unmarked) [N-[(ethoxycarbonyl)methyl)-p-menthane-3-carboxamide, reference compound] | – | 6.43
CCNC(=O)C1CC(C)CCC1C(C)C (centres unmarked) [N-ethyl-5-methyl-2-propan-2-ylcyclohexane-1-carboxamide, reference compound] | – | 6.57
CC1CCC(C(C)C)C(OCCO)C1 (centres unmarked) [hydroxyethyl-menthyl ether] | less salty taste | 5.57
CC1CCC(C(C)(C)O)C(O)C1 (centres unmarked) [p-menthane-3,8-diol] | less salty taste | 5.86
